Experiments:
Type in all cases: cell-based
M1 muscarinic receptor = molecular target: T1, M1 muscarinic receptor (Homo sapiens, UniProt P11229); assay: Functional mobilization of intracellular calcium (FLIPR), M1-CHO cells; conditions: for Emax: 100% efficacy = maximum response obtained with the Carbachol control; for M1 Activity: M1-CHO cells, calcium mobilization (FLIPR)
T1 construct: expressed in transfected cells; host or cells: CHO (M1-CHO)
T1 sequence (P11229 1-460): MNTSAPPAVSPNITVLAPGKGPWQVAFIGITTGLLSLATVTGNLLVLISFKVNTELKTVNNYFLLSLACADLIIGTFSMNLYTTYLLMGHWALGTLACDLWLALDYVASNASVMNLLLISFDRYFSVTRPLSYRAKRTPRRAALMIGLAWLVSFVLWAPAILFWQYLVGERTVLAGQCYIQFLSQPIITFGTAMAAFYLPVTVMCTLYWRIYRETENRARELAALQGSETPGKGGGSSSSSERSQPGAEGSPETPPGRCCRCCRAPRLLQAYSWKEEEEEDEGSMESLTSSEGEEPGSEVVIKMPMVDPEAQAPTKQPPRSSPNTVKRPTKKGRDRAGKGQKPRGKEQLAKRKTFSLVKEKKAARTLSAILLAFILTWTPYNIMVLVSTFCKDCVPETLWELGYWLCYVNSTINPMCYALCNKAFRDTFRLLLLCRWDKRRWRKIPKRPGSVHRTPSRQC
Method in brief: (§1)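 Calcium mobilisation read by FLIPR over 60 s (ex 488/em 540 nm) in recombinant muscarinic CHO lines loaded with calcium dye plus 1 mM probenecid. Compounds tested as agonists alone, or as inhibitors against EC80 carbachol after 15 min pre-incubation or co-addition; 0.5% DMSO; efficacy scaled to carbachol maximal response.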

M2 muscarinic receptor = molecular target: T2, M2 muscarinic receptor (Homo sapiens, UniProt P08172); assay: Functional mobilization of intracellular calcium (FLIPR), M2-CHO cells; conditions: for Emax: 100% efficacy = maximum response obtained with the Carbachol control; for M2 Activity: M2-CHO cells, calcium mobilization (FLIPR)
T2 construct: expressed in transfected cells; host or cells: CHO (M2-CHO)
T2 sequence (P08172 1-466): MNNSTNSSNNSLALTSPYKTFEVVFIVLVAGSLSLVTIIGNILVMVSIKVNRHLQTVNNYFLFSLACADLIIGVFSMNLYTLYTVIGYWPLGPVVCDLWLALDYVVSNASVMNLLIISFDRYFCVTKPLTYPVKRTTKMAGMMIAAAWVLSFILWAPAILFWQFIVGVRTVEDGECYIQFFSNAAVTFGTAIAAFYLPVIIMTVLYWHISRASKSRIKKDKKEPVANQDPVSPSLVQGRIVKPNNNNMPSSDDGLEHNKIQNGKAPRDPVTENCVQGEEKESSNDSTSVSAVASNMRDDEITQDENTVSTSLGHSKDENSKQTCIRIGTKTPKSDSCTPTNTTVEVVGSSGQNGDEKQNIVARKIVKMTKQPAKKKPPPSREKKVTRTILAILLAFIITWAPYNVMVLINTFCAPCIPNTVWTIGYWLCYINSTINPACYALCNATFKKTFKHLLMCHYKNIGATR
Method in brief: as §1

M3 muscarinic receptor = molecular target: T3, M3 muscarinic receptor (Homo sapiens, UniProt P20309); assay: Functional mobilization of intracellular calcium (FLIPR), M3-CHO cells; conditions: for Emax: 100% efficacy = maximum response obtained with the Carbachol control; for M3 Activity: M3-CHO cells, calcium mobilization (FLIPR)
T3 construct: expressed in transfected cells; host or cells: CHO (M3-CHO)
T3 sequence (P20309 whole entry): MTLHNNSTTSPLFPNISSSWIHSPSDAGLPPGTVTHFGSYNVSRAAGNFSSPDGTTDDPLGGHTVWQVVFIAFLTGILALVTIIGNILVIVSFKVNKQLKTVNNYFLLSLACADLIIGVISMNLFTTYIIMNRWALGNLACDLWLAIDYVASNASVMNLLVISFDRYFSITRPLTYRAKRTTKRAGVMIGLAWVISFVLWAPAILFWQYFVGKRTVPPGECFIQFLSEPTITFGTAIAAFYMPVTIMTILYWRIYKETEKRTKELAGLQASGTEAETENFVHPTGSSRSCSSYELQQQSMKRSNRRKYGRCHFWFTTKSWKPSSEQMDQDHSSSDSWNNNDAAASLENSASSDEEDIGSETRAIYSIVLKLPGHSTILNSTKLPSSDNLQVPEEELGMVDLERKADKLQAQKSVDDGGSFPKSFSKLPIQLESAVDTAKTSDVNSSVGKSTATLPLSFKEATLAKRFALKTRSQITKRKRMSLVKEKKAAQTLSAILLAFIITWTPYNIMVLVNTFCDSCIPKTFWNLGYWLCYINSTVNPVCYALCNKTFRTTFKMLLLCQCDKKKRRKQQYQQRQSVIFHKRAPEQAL
Method in brief: as §1

M4 muscarinic receptor = molecular target: T4, M4 muscarinic receptor (Homo sapiens, UniProt P08173); assay: Functional mobilization of intracellular calcium (FLIPR), M4-CHO cells; conditions: for Emax: 100% efficacy = maximum response obtained with the Carbachol control; for M4 Activity: M4-CHO cells, calcium mobilization (FLIPR)
T4 construct: expressed in transfected cells; host or cells: CHO (M4-CHO)
T4 sequence (P08173 1-479): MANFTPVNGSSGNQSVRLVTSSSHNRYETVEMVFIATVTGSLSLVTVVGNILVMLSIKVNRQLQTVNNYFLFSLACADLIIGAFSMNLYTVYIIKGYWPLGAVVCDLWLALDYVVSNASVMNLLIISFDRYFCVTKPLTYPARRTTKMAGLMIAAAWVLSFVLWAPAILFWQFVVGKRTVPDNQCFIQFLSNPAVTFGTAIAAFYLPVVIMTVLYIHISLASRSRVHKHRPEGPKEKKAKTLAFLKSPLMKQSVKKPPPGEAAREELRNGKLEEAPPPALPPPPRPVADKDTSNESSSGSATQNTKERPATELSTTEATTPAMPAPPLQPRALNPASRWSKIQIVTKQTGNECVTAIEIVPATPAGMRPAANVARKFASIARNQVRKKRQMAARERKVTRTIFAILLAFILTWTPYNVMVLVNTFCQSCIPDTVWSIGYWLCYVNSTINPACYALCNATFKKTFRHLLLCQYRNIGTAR
Method in brief: as §1

SMILES	Emax (M1 muscarinic receptor)	M1 Activity (M1 muscarinic receptor)	Emax (M2 muscarinic receptor)	M2 Activity (M2 muscarinic receptor)	Emax (M3 muscarinic receptor)	M3 Activity (M3 muscarinic receptor)	Emax (M4 muscarinic receptor)	M4 Activity (M4 muscarinic receptor)
COc1ccc(C)cc1C1CCN([C@H]2CC[C@H]3CC[C@H]2C3)CC1 [Compound 185]	25 to 100%	++ (activity was measured to be from 1.0 μM to 5.0 μM)	25 to 100%	+ (activity was measured to be greater than 5.0 μM)	< 25%	+ (activity was measured to be greater than 5.0 μM)	25 to 100%	+++ (activity was measured to be less than 1.0 μM)
COc1ccc(Br)cc1C1CCN([C@@H]2C[C@@H]3CC[C@H]2C3)CC1 [Compound 187, 1-((1S,2R,4R)-bicyclo[2.2.1]heptan-2-yl)-4-(5-bromo-2-methoxyphenyl)piperidine]	25 to 100%	+++ (activity was measured to be less than 1.0 μM)	25 to 100%	++ (activity was measured to be from 1.0 μM to 5.0 μM)	< 25%	+ (activity was measured to be greater than 5.0 μM)	25 to 100%	+++ (activity was measured to be less than 1.0 μM)
Cc1ccc(C(=O)COc2ccccc2C2CCN([C@H]3C[C@H]4CC[C@H]3C4)CC2)cc1 [Compound 188]	25 to 100%	+ (activity was measured to be greater than 5.0 μM)	25 to 100%	+ (activity was measured to be greater than 5.0 μM)	< 25%	+ (activity was measured to be greater than 5.0 μM)	25 to 100%	++ (activity was measured to be from 1.0 μM to 5.0 μM)
CCOC(=O)N1CCC(CN2CCC(O)(c3cc(F)ccc3OC)CC2)CC1 [Compound 189]	25 to 100%	+++ (activity was measured to be less than 1.0 μM)	< 25%	+ (activity was measured to be greater than 5.0 μM)	< 25%	+ (activity was measured to be greater than 5.0 μM)	25 to 100%	+++ (activity was measured to be less than 1.0 μM)
COc1ccc(-c2ccc(CC#N)cc2)cc1C1CCN(C2C[C@H]3CC[C@H]2C3)CC1 (stereo partly drawn) [Compound 190]	< 25%	+ (activity was measured to be greater than 5.0 μM)	< 25%	+ (activity was measured to be greater than 5.0 μM)	< 25%	+ (activity was measured to be greater than 5.0 μM)	25 to 100%	+ (activity was measured to be greater than 5.0 μM)
COc1ccc(-c2ccc(C(C)(C)C#N)cc2)cc1C1CCN(C2CCOCC2)CC1 [Compound 192]	25 to 100%	+ (activity was measured to be greater than 5.0 μM)	< 25%	+ (activity was measured to be greater than 5.0 μM)	< 25%	+ (activity was measured to be greater than 5.0 μM)	25 to 100%	+ (activity was measured to be greater than 5.0 μM)
COc1ccc(F)cc1C1CCN(C2CCOCC2)CC1 [Compound 193]	25 to 100%	++ (activity was measured to be from 1.0 μM to 5.0 μM)	25 to 100%	+ (activity was measured to be greater than 5.0 μM)	< 25%	+ (activity was measured to be greater than 5.0 μM)	25 to 100%	+++ (activity was measured to be less than 1.0 μM)
c1ccc(C2CCN([C@H]3C[C@H]4CC[C@H]3C4)CC2)c(-c2ccc3c(c2)OCO3)c1 [Compound 195]	25 to 100%	+ (activity was measured to be greater than 5.0 μM)	< 25%	+ (activity was measured to be greater than 5.0 μM)	< 25%	+ (activity was measured to be greater than 5.0 μM)	25 to 100%	+++ (activity was measured to be less than 1.0 μM)
CNC(=O)c1ccc(-c2ccc(OC)c(C3CCN(C4CC5CCC(C5)C4)CC3)c2)cc1 (stereo not drawn) [Compound 196]	< 25%	+ (activity was measured to be greater than 5.0 μM)	< 25%	+ (activity was measured to be greater than 5.0 μM)	< 25%	+ (activity was measured to be greater than 5.0 μM)	25 to 100%	+++ (activity was measured to be less than 1.0 μM)
COc1ccccc1C1(O)CCN([C@H]2C[C@H]3CC[C@H]2C3)CC1O (stereo partly drawn) [Compound 197]	< 25%	+ (activity was measured to be greater than 5.0 μM)	< 25%	+ (activity was measured to be greater than 5.0 μM)	< 25%	+ (activity was measured to be greater than 5.0 μM)	25 to 100%	+ (activity was measured to be greater than 5.0 μM)
CCOC(=O)N1C2CCC1CC(N1CCC(c3cc(F)cc(F)c3OC)CC1)C2 (stereo not drawn) [Compound 198]	25 to 100%	++ (activity was measured to be from 1.0 μM to 5.0 μM)	< 25%	+ (activity was measured to be greater than 5.0 μM)	< 25%	+ (activity was measured to be greater than 5.0 μM)	25 to 100%	+++ (activity was measured to be less than 1.0 μM)
COc1ccccc1C1CCN(C2CCCC3(CCCCC3)C2)CC1 (stereo not drawn) [Compound 199]	< 25%	+ (activity was measured to be greater than 5.0 μM)	< 25%	+ (activity was measured to be greater than 5.0 μM)	< 25%	+ (activity was measured to be greater than 5.0 μM)	< 25%	+ (activity was measured to be greater than 5.0 μM)
COc1ccc(F)cc1C1CCN(C2CCCCC2)CC1 [Compound 200]	25 to 100%	+++ (activity was measured to be less than 1.0 μM)	25 to 100%	++ (activity was measured to be from 1.0 μM to 5.0 μM)	< 25%	+ (activity was measured to be greater than 5.0 μM)	25 to 100%	+++ (activity was measured to be less than 1.0 μM)
CCOC(=O)N1C2CCC1CC(N1CCC(c3ccccc3OC)CC1)C2 (stereo not drawn) [Compound 202]	25 to 100%	+++ (activity was measured to be less than 1.0 μM)	25 to 100%	++ (activity was measured to be from 1.0 μM to 5.0 μM)	< 25%	+ (activity was measured to be greater than 5.0 μM)	25 to 100%	+++ (activity was measured to be less than 1.0 μM)
Fc1ccc(F)c(C2CCN(C3C[C@H]4CC[C@H]3C4)CC2)c1 (stereo partly drawn) [Compound 205]	25 to 100%	++ (activity was measured to be from 1.0 μM to 5.0 μM)	25 to 100%	++ (activity was measured to be from 1.0 μM to 5.0 μM)	< 25%	+ (activity was measured to be greater than 5.0 μM)	25 to 100%	+++ (activity was measured to be less than 1.0 μM)
